The values that follow come from article PMC6332393, “A Fungal α-Galactosidase from Tricholoma matsutake with Broad Substrate Specificity and Good Hydrolytic Activity on Raffinose Family Oligosaccharides” (Molecules, 2015).

The test system of assay [1] is T1, α-galactosidase TMG.
T1 construct: native, purified from fruiting bodies (Yunnan, China); monomer, 47 kDa by SDS-PAGE and gel filtration; inner peptides by LC-MS/MS GNVMVSLG, LLNMND, INVNDS; not cloned
The experiment in a line: p-nitrophenol release at […] nm; Grafit fit. Format: biochemical, Tricholoma matsutake. The conditions noted are these: pH 4.6, 50 °C (standard assay); 1-10 mM substrate; apparent Km; unit Mm [sic].

Assay [2] relates to T1, α-galactosidase TMG. The experiment in a line: reducing sugar release ([…],5-dinitrosalicylic acid); Grafit fit. Format: biochemical, Tricholoma matsutake. The conditions noted are these: 100 mM NaAc-HAc pH 4.6, 40 °C; 1-10 mM substrate; apparent Km; unit Mm [sic].

For orientation: Km means the substrate concentration at which the rate is half of its maximum. On to `O=[N+]([O-])c1ccc(O[C@H]2O[C@H](CO)[C@H](O)[C@H](O)[C@H]2O)cc1` [pNPGal, 4-Nitrophenyl α-D-galactopyranoside], for which, in the assay on α-galactosidase TMG [1], the Michaelis-Menten constant (Km) amounted to 0.99 mM.

Turning to `OC[C@H]1O[C@H](OC[C@H]2O[C@H](O[C@]3(CO)O[C@H](CO)[C@@H](O)[C@@H]3O)[C@H](O)[C@@H](O)[C@@H]2O)[C@H](O)[C@@H](O)[C@H]1O` [raffinose], the Km in the assay on α-galactosidase TMG [2] came to 3.7 mM.

`OC[C@H]1O[C@H](OC[C@H]2O[C@H](OC[C@H]3O[C@H](O[C@]4(CO)O[C@H](CO)[C@@H](O)[C@@H]4O)[C@H](O)[C@@H](O)[C@@H]3O)[C@H](O)[C@@H](O)[C@H]2O)[C@H](O)[C@@H](O)[C@H]1O` [stachyose]: the Km in the assay on α-galactosidase TMG [2] amounted to 3.5 mM.
